Source: US6407265B2, “Tin polyoxaalkanecarboxylates and compositions containing them” (priority 1998, dated 2002)

Legend:
[1] = test system: A 498 (renal cancer); type: cell-based, human; conditions: in vitro, A 498 renal cancer cell line
[2] = test system: M19 MEL (melanoma); type: cell-based, human; conditions: in vitro, M19 MEL melanoma cell line
[3] = Stability in the presence of water (117Sn NMR); type: physicochemical; conditions: CD3CD2OD solution, increasing amounts of D2O added, resonance regularly slightly shifted
Procedure: The stability in the presence of water of four compounds, 6, 8, 9 and 12, was determined.

[4] = test system: H226 (non small cell lung cancer); type: cell-based, human; conditions: in vitro, H226 non small cell lung cancer cell line
[5] = test system: EVSA-T (mammary cancer); type: cell-based, human; conditions: in vitro, EVSA-T mammary cancer cell line
Excerpt: (§1) The ID50 inhibition doses in ng/ml of the tested compounds are given in the table as well as those for some known reference compounds.

[6] = test system: WiDr (colon carcinoma); type: cell-based, human; conditions: in vitro, WiDr colon carcinoma cell line
[7] = test system: IGROV (ovarian cancer); type: cell-based, human; conditions: in vitro, IGROV ovarian cancer cell line
[8] = test system: MCF-7 (mammary cancer); type: cell-based, human; conditions: in vitro, MCF-7 mammary cancer cell line
Excerpt: as §1

Row | Compound | ID50 inhibition dose A498 [1] [µg/mL] | ID50 inhibition dose M19 [2] [µg/mL] | Stability in the presence of water [3] | ID50 inhibition dose H226 [4] [µg/mL] | ID50 inhibition dose EVSA-T [5] [µg/mL] | ID50 inhibition dose WiDr [6] [µg/mL] | ID50 inhibition dose IGROV [7] [µg/mL] | ID50 inhibition dose MCF-7 [8] [µg/mL]
1 | CCC[CH2][Sn]([CH2]CCC)([CH2]CCC)[O]C(=O)c1ccc2c(c1)OCCOCCOCCOCCO2 [Compound 6, tri-n-butyltin 4,7,10,13,16-pentaoxadicyclo[13.4.0]cosa-1,3 (17),18-triene-1-carboxylate] | <0.003 | <0.003 | single resonance | <0.003 | <0.003 | <0.003 | <0.003 | <0.003
2 | COCCOCC(=O)[O][Sn]([c]1ccccc1)([c]1ccccc1)[c]1ccccc1 [Compound 8, triphenyltin 3,6-diheptanoate] | 0.032 | 0.031 | single resonance | 0.033 | 0.012 | 0.034 | 0.037 | 0.013
3 | CCC[CH2][Sn]([CH2]CCC)([CH2]CCC)[O]C(=O)COCCOC [Compound 9, tri-n-butyltin 3,6-diheptanoate] | 0.153 | 0.09 | single resonance | 0.061 | 0.04 | 0.082 | 0.084 | 0.032
4 | bis{di-n-butyl-[4,7,10,13,16,19-hexaoxadicyclo[16.4.0]dicosa-1,3(20),21-triene-1-carboxylato]tin}oxide [Compound 4] | 0.126 | 0.068 | – | 0.073 | 0.046 | 0.239 | 0.082 | 0.036
5 | di-n-butyltin bis (3,6,9-trioxadecanoate) [Compound 14] | 0.145 | 0.167 | – | 0.28 | 0.066 | 0.495 | 0.178 | 0.086
6 | triphenyltin 3,6,9-trioxadecanoate [Compound 12] | 0.021 | 0.024 | single resonance | 0.025 | 0.009 | 0.019 | 0.033 | 0.009
